This note sets out measurements from ChEMBL document CHEMBL1148644, “Human PEPT1 pharmacophore distinguishes between dipeptide transport and binding” (J Med Chem, 2006).

Where a SMILES comes first, the peptide text is derived from it.

Experiment [1] concerns the target T1, Solute carrier family 15 member 1 (Homo sapiens, UniProt P46059).
T1 sequence (P46059 whole entry): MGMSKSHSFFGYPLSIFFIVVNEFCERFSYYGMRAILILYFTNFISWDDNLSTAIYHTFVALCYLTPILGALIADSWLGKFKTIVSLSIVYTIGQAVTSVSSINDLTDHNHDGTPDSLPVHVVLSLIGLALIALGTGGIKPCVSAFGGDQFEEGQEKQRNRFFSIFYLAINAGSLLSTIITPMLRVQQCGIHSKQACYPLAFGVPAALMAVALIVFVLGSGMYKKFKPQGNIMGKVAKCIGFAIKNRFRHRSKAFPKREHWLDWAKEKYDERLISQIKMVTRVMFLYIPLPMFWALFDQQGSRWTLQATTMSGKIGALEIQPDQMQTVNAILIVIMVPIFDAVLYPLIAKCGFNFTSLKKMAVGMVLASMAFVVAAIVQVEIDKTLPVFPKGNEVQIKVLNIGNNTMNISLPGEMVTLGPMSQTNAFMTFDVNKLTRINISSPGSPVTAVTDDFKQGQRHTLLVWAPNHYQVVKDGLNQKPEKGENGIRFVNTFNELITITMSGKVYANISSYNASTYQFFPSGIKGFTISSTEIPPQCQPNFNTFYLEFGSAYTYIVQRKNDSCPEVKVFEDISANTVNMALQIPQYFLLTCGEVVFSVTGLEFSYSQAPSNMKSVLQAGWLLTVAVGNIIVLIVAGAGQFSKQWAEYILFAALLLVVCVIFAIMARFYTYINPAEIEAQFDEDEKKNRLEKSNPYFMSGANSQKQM
Put plainly: Activation of human PEPT1 expressed in MDCK cells. The class given is functional, cell-based.

Experiment [2] addresses T1, Solute carrier family 15 member 1. Kind of experiment: Binding affinity to human PEPT1 assessed as inhibition of [14C]Gly-Sar uptake in MDCK cells. Type of experiment: functional, cell-based. The following applies: read-out: IC50.

Turning to `NCC(=O)N[C@@H](Cc1c[nH]cn1)C(=O)O` (H-Gly-His-OH), in experiment [1], the EC50 – broadly, the concentration needed to bring the measured effect to its halfway point – is 400 µM. Also, in experiment [2], the IC50 (usually the concentration at which inhibition is half-maximal) is 810 µM.
For `C[C@H](NC(=O)[C@@H](N)Cc1ccccc1)C(N)=O`, in that order: 850 µM and 2990 µM.
For the compound `N[C@@H](Cc1c[nH]cn1)C(=O)N[C@@H](Cc1c[nH]cn1)C(=O)O`, in experiment [1], the 50% effective concentration (EC50) stood at 370 µM. Further, the IC50 in experiment [2] turned out to be 400 µM.
In experiment [1], `NCC(=O)N[C@@H](Cc1c[nH]c2ccccc12)C(=O)O` (H-Gly-Trp-OH) showed an EC50 of 330 µM. For the same compound, the IC50 in experiment [2] was 520 µM.
For `NCCCC[C@H](N)C(=O)N1CCC[C@@H]1C(=O)O`, in that order: 190 µM and 390 µM.
The like results for `NC(=O)[C@H](Cc1ccc(O)cc1)NC(=O)[C@@H](N)Cc1ccccc1` (H-Phe-Tyr-NH2) were, in that order, 30 µM and 20 µM.
For `N[C@@H](CO)C(=O)N[C@@H](CO)C(=O)O` (H-Ser-Ser-OH), in that order: 140 µM and 130 µM.
As to `CC(C)C[C@H](NC(=O)[C@@H]1CCCN1)C(=O)O` (H-Pro-Leu-OH), the EC50 in experiment [1] turned out to be 250 µM. For the same compound, the IC50 in experiment [2] worked out at 620 µM.
The like results for `CC(C)[C@H](NC(=O)[C@@H](N)CCCCN)C(=O)O` (H-Lys-Val-OH) were, in that order, 140 µM and 250 µM.
The like results for `NC(N)=NCCC[C@H](N)C(=O)NCC(=O)O` (H-Arg-Gly-OH) were, in that order, 270 µM and 390 µM.
For `NCC(=O)N[C@@H](CCC(=O)O)C(=O)O` (H-Gly-Glu-OH), in that order: 1100 µM and 650 µM.
In experiment [1], `N[C@@H](Cc1ccc(O)cc1)C(=O)NCC(=O)O` registered an EC50 of 240 µM. In addition, the concentration for half-maximal inhibition (IC50) in experiment [2] is 330 µM.
`NCCCC[C@H](N)C(=O)NCC(=O)O` (H-Lys-Gly-OH) had an EC50 in experiment [1] of 320 µM. Also, the IC50 in experiment [2] was 380 µM.
